How the values were obtained:
[1] = test system: ovarian stromal cell line TRS3; assay: TGFβ1 induction of the 10 poor outcome signature genes (mRNA) in TRS3 cells; format: cell-based, human
Description: FIG. 13(A) to FIG. 13(C). Regulation of the poor outcome signature genes by TGFβ signaling. (A) Ingenuity Pathway Analysis of the 61 genes present in at least two of the three discovery signatures of poor outcome. Genes that are present in all three discovery signatures are circled in red. (B) Top upstream regulators of the 61 poor outcome genes. (C) Induction of the 10 poor outcome signature genes by TGFβ1 in the ovarian stromal cell line TRS3 and the ovarian cancer cell line OVCAR3. Cells were treated with TGFβ1 (10 ng/ml) for 48 hours (TRS3) or 1-3 hours (OVCAR3) with or without pre-treatment with the TGFβ1 receptor inhibitor, A83-01. Shown is the relative fold change of the mRNA levels compared to untreated control cells. […]
(§1) To validate the predicted regulation of the poor outcome genes by TGFβ1, the Inventors treated the human ovarian stromal cell line TRS3 and the ovarian cancer cell line OVCAR3 with TGFβ1 and measured mRNA expression of the 10 poor outcome genes before and after TGFβ1 treatment.
(§2) Importantly, The Inventors included the ovarian stromal cell line since many of our poor outcome genes are thought to be expressed in stromal cells. […] To further validate that this induction was mediated by TGFβ1 signaling, the Inventors measured expression of the 10 genes in cells pre-treated with the TGFβ1 receptor inhibitor A83-01 before adding TGFβ1.

[2] = test system: ovarian cancer cell line OVCAR3; assay: TGFβ1 induction of the 10 poor outcome signature genes (mRNA) in OVCAR3 cells; format: cell-based, human
Description: FIG. 13(A) to FIG. 13(C). Regulation of the poor outcome signature genes by TGFβ signaling. (A) Ingenuity Pathway Analysis of the 61 genes present in at least two of the three discovery signatures of poor outcome. Genes that are present in all three discovery signatures are circled in red. (B) Top upstream regulators of the 61 poor outcome genes. (C) Induction of the 10 poor outcome signature genes by TGFβ1 in the ovarian stromal cell line TRS3 and the ovarian cancer cell line OVCAR3. Cells were treated with TGFβ1 (10 ng/ml) for 48 hours (TRS3) or 1-3 hours (OVCAR3) with or without pre-treatment with the TGFβ1 receptor inhibitor, A83-01. Shown is the relative fold change of the mRNA levels compared to untreated control cells. Data are presented as the mean+/−SEM in triplicate samples. * indicates P<0.05. Data are representative of at least three independent experiments.
FIG. 26. Induction of the 10 poor outcome signature genes by TGFβ1. OVCAR3 (OV3) cells were treated with 10 ng/ml TGFβ1 (B1) for either 1 hour or 3 hours with (OV3+B1+A) or without (OV3+B1) pre-treatment with the TGFβ inhibitor, A83-01.
as §1, §2
To learn more about the possible upstream regulators of the signature genes, the Inventors applied Ingenuity Pathway Analysis to the 61 signature genes in FIG. 12A and identified TGFβ1, TGFβ2, TGFβ3, SMAD3, and SMAD7 as top transcription factors regulating in expression of the signature genes.

[3] = test system: TGFβ; settings: mouse xenografts; cited from earlier work
[4] = test system: LOX; settings: xenograft and transgenic mouse models; cited from earlier work
[5] = test system: ADAM12 mRNA in TRS3 cells; assay: Quantitative real-time PCR of ADAM12 mRNA in TRS3 cells with recombinant TGFβ1; format: cell-based, human; settings: recombinant TGFβ1 10 ng/ml, 48 hours
Description: FIG. 37(A) to FIG. 37(C). ADAM12 expression in epithelial and stromal cells in patient tumors and different culture conditions. (A) Representative localization of ADAM12 protein (immunohistochemistry; brown staining) and mRNA (in situ hybridization; brown dots) in ovarian tumor sections from HGSOC patients. Size bar for both photographs=50 μm. (B) and (C) Quantitative real-time PCR of the ADAM12 mRNA in the TRS3 ovarian stromal cell line and OVCAR3 ovarian cancer cell line alone or in co-culture in the presence or absence of 10 ng/ml of recombinant TGFβ1. TRS3 stromal cells and GFP-labelled OVCAR3 cancer cells were co-cultured using an insert (insert) or in direct contact (direct) for 48 hours and sorted by FACS before RNA isolation. The top cell line on the x axis represents the cell line from which RNA was isolated. The y axis indicates 2^−ΔCt value. Data indicates mean+/−SEM.
The OVCAR3 ovarian cancer cell line was obtained from Dennis Slamon (University of California, Los Angeles) and its authenticity was confirmed by Laragen using the short tandem repeat (STR) method. […]
Total RNA was extracted using the RNeasy mini kit (Qiagen) and was reverse-transcribed to cDNA using the QuantiTect Reverse Transcription Kit (Qiagen). […] The qRT-PCR reaction was performed using an iCycler thermo cycler (Bio Rad) and the data were analyzed by the 2-ΔCT method. […]

[6] = test system: osteosarcoma; settings: mouse model of osteosarcoma; cited from earlier work
[7] = pre-treatment before TGFβ1 10 ng/ml

## Cc1cccc(-c2nn(C(=S)Nc3ccccc3)cc2-c2ccnc3ccccc23)n1 [A83-01, reference compound]
[1]; [7]
  TGFβ1-induced expression of the 10 genes in cells pre-treated with inhibitor: abrogated
[2]; [7]
  TGFβ1-induced expression of the 10 genes in cells pre-treated with inhibitor: abrogated
[3]
  Tumor growth: reduce tumor growth

## N#CCCN [β-aminopropionitrile]
[4]
  Tumor metastasis: inhibited

## TGFβ1: recombinant TGFβ1 (Sigma), growth factor used at 10 ng/ml
[1]; TGFβ1 10 ng/ml, 48 hours, most of the 10 genes
  mRNA expression of the 10 poor outcome genes after TGFβ1 treatment: induced
[5]
  Increase of ADAM12 levels in TRS3 cells: approximately 10 fold
[2]; TGFβ1 10 ng/ml, 1-3 hours, most of the 10 genes
  mRNA expression of the 10 poor outcome genes after TGFβ1 treatment: induced
[2]; after 1 hour of treatment with TGFβ1
  Expression of COL5A1 and SNAI2: markedly induced
[2]; after 3 hours of treatment with TGFβ1
  Expression of the remaining 8 genes: induced

## collagenase
[6]
  Uptake and distribution of monoclonal antibodies: increased

Source: patent US10253368B2, “Molecular signatures of ovarian cancer” (Cedars-Sinai Medical Center, priority 2012, dated 2019)
